Data reported in US20260315609A1, “MIXED VASOPRESSIN RECEPTOR AGONIST-ANTAGONIST FOR TREATING END-STAGE LIVER DISEASE AND COMPLICATIONS ASSOCIATED THEREOF” (FERRING B.V., priority 2022, published 2026).
Starred links: 1 amine or outer side, 2 acyl side, 3 side chain; linkers in the order of their positions; H or OH if unused. Positions of bridges follow the written chain, without caps; N, C: chain ends. Non-standard residues stand in square brackets, D forms with d. Residues, ends and D or L forms follow the SMILES beside them. Chains are numbered I, II in the order given. *: point of attachment. isoGln = NC(=O)[C@H](CCC(=O)[*:2])N[*:1]; εLys = N[C@@H](CCCCN[*:1])C(=O)[*:2]; Dab = NCC[C@H](N)C(=O)O; PhAc = O=C(Cc1ccccc1)*

Legend:
[1] = tested on: CCl4-induced rat model of cirrhosis and ascites; assay: CCl4-induced cirrhosis and ascites rats, cohort 2 (single IV bolus), renal excretory function; assay type: in vivo; details: 100 μg/kg IV
Method: (§1) Animals: 90 male Wistar rats (Charles River Laboratories, Espana S.A) weighing 200-220 grams at the time of receipt were subjected to a cirrhosis induction program; high dose CCl4 was administered by inhalation twice weekly (Monday and Friday) and phenobarbital (0.3 g/L) was added to drinking water. In some instances, liver damage in this model is caused by hepatotoxic CCl4 metabolites produced in the liver. In some instances, phenobarbital induction of the microsomal enzyme oxidizing system exaggerates the intensity of the hepatic necrosis. The data was collected from the treatment of 44 cirrhotic rats with ascites. Animals were allowed free access to food and water throughout the study.
(§2) The study consisted of 3 treatment cohorts, as detailed in Table 10. Animals developing and maintaining ascites for 2 weeks were randomly assigned to treatment groups. Ringer Braun saline solution was used as vehicle. IV bolus were administered via femoral veins.
Cohort 2: Animals were anesthetized and the left femoral artery and vein catheterized. Bladders were exposed by suprapubic incision and catheterized for urine collection. A priming dose of PAH (4 mg/animal) was administered via the jugular vein followed by a constant infusion (2 mL/hr) of Ringer solution containing 4 mg/mL PAH. After 30 minutes of infusion, a baseline 30 minute urine collection was obtained for urine volume, urine sodium content, urine creatinine content, and PAH measurements. In the middle of the 30 minute urine collection, a blood sample (0.8 mL) was obtained via the femoral artery catheter for PAH and creatinine measurements. […] Five 30 minute urine collections were performed over 150 minutes, with blood samples collected in the middle of each 30 minute urine collection. Following blood sampling, packed cells were reconstituted with Ringer solution and reinjected over a period of 3 minutes.

[2] = tested on: CCl4-induced rat model of cirrhosis and ascites; assay: CCl4-induced cirrhosis and ascites rats, cohort 1 (SC bolus b.i.d. 3 days), renal excretory function; assay type: in vivo
Method: as §1, §2
This study was performed at the Hospital Clinic (Barcelona, Spain). Measurements and/or samples were collected for additional experimental parameters (e.g., water intake, urine osmolality, serum samples, tissue samples, etc.) but data are not reported.
Cohort 1: Animals were placed into metabolic cages for continuous urine collection and administered 100 μg/kg FE 204205 or vehicle by SC bolus for 3 days (see Table 3 for details). Measurements of body weight, urine volume, and urine sodium content were taken prior to treatment (Day 0) and daily over the course of treatment administration. After 3 days of treatment, the volume of ascites was measured by aspiration and the animals were sacrificed by isofluorane overdose.

CC[C@H](C)[C@@H]1NC(=O)[C@H](Cc2ccccc2)NC(=O)[C@@H](N)CSSC[C@@H](C(=O)N2CCC[C@H]2C(=O)N[C@@H](CCNC(=O)[C@@H](N)CCCCNC(=O)[C@H](CCCCNC(C)=O)NC(=O)CC[C@H](NC(=O)[C@H](CCCNC(=N)N)NC(=O)[C@@H]2CCCN2C(=O)[C@H](C)NC(=O)[C@H](CC(N)=O)NC(=O)[C@H](CCC(N)=O)NC(=O)[C@H](Cc2ccccc2)NC(=O)[C@@H](Cc2ccc(OC)cc2)NC(=O)Cc2ccccc2)C(N)=O)C(=O)NCC(N)=O)NC(=O)[C@H](CC(N)=O)NC(=O)[C@H](CCC(N)=O)NC1=O [Compound 1, Glycinamide, L-cysteinyl-L-phenylalanyl-L-isoleucyl-L-glutaminyl-L-asparaginyl-L-cysteinyl-L-prolyl-N4-(phenylacetyl-O-methyl-D-tyrosyl-L-phenylalanyl-L-glutaminyl-L-asparaginyl-L-alanyl-L-prolyl-L-arginyl-L-isoglutamyl-N5-acetyl-L-lysyl-L-ε-lysyl)-L-2,4-diaminobutyryl-, cyclic (1→6)-disulfide] (I: H-CFIQNCP[Dab]G-NH2 / II: PhAc-[dY](Me)FQNAPR[isoGln]K(Ac)[εLys]; disulfide I:1-I:6; amide I:8-II:C)
Sodium Excretion ([1]; 0 min): 0.4 μEq/min | Urine Volume ([1]; 0 min): 8.4 µL/min | Sodium Excretion ([1]; 30 min): 1.1 μEq/min | Urine Volume ([1]; 30 min): 16.4 µL/min | Sodium Excretion ([1]; 60 min): 4.1 μEq/min | Urine Volume ([1]; 60 min): 26.5 µL/min | Sodium Excretion ([1]; 90 min): 5.3 μEq/min | Urine Volume ([1]; 90 min): 26.2 µL/min | Sodium Excretion ([1]; 120 min): 7.0 μEq/min | Urine Volume ([1]; 120 min): 32.3 µL/min | Sodium Excretion ([1]; 150 min): 7.2 μEq/min | Urine Volume ([1]; 150 min): 32.7 µL/min | Ascites Volume ([2]; 100 μg/kg SC b.i.d., after 3 days (vehicle 18.6)): 6.0 mL | Body Weight ([2]; 100 μg/kg SC b.i.d., basal): 461 grs | Sodium Excretion ([2]; 100 μg/kg SC b.i.d., basal): 0.6 mEq/day | Urine Volume ([2]; 100 μg/kg SC b.i.d., basal): 9.7 mL/day | Body Weight ([2]; 100 μg/kg SC b.i.d., day 1): 402 grs | Sodium Excretion ([2]; 100 μg/kg SC b.i.d., day 1): 8.2 mEq/day | Urine Volume ([2]; 100 μg/kg SC b.i.d., day 1): 51.6 mL/day | Body Weight ([2]; 100 μg/kg SC b.i.d., day 2): 397 grs | Sodium Excretion ([2]; 100 μg/kg SC b.i.d., day 2): 1.1 mEq/day | Urine Volume ([2]; 100 μg/kg SC b.i.d., day 2): 21.8 mL/day | Body Weight ([2]; 100 μg/kg SC b.i.d., day 3): 396 grs | Sodium Excretion ([2]; 100 μg/kg SC b.i.d., day 3): 0.3 mEq/day | Urine Volume ([2]; 100 μg/kg SC b.i.d., day 3): 16.6 mL/day | effect on ascites ([2]; SC, three days): fully evacuated the ascites accumulated in the peritoneal cavity or markedly diminished ascites volume
